Measured values from ChEMBL document CHEMBL1124714, “Synthesis and in vitro activity of stereoisomers of a novel thromboxane receptor antagonist, (+-)-(5Z)-7-[3-endo-[(phenylsulfonyl)amino]bicyclo [2.2.1]hept-2-exo-yl]heptenoic acid” (J Med Chem, 1990).

Tests used:
Format in all cases: functional, organism-based
Rattus norvegicus [1] = species: Rattus norvegicus; assay: Inhibitory activity against rat thoracic aorta(induced by 30 nM of U-46619)
Homo sapiens = species: Homo sapiens; assay: Inhibitory activity against aggregation of human platelet-rich plasma(induced by 4 uM of U-46619)
Rattus norvegicus [2] = species: Rattus norvegicus; assay: Inhibitory activity against aggregation of rat washed platelets (induced by 4 ug/mL of collagen)

| IC50 (Rattus norvegicus [1]) [µM] | IC50 (Homo sapiens) [µM] | IC50 (Rattus norvegicus [2]) [µM] | SMILES |
| --- | --- | --- | --- |
| 0.0014 | 0.45 | 0.0029 | O=C(O)CCC/C=C\C[C@H]1C2CC[C@@H](C2)[C@@H]1NS(=O)(=O)c1ccccc1 |
|  | 0.06 |  | O=C(O)CCC/C=C\C[C@@H]1[C@H](CNNC(=O)Nc2ccccc2)[C@H]2CC[C@H]1O2 |
| 0.0372 | 2.5 | 0.0041 | O=C(O)CCC/C=C\C[C@@H]1C2CC[C@@H](C2)[C@@H]1NS(=O)(=O)c1ccccc1 |
| 0.0169 | 3.3 | 0.0029 | O=C(O)CCC/C=C\C[C@@H]1C2CC[C@@H](C2)[C@H]1NS(=O)(=O)c1ccccc1 |
| 1.8 | 7.2 | 0.26 | O=C(O)COc1ccc(CCNS(=O)(=O)c2ccccc2)cc1 [SULOTROBAN] |
